Measured values taken from patent EP0238198A2, “Method of modifying the lipid structure function and expression of cell membranes and pharmaceutical compositions for use therein” (Habib, Nagy Adly, priority 1986, dated 1987).
Entries after “also recorded” stand apart in the source; their conditions may differ. Read-outs that look alike come from different tables or passages of the source.

How the values were obtained:
[1] = system: type 2 herpes simplex virus (HSV); test: HSV2 replication in human embryonic lung fibroblasts (virus yield); format: cell-based, HSV type 2; details: for inhibition at 100 µM: Human alphaherpesvirus 2, Fibroblast, 28 h, read-out: % reduction in virus yield compared with control cultures
Experimental: Stearic and iodinated stearic acids were assayed for their inhibitory effects on the replication of type 2 herpes simplex virus (HSV) in sub-confluent monolayer cultures of human embryonic lung fibroblasts. […] This was accomplished by reacting hydriodic acid with oleic acid in acetic acid at 20°C. Excess iodine was removed at the end of the reaction by the addition of an excess of sodium thiosulphate, and the product fatty acid was extracted into hexane.
Bovine serum albumin conjugates of the fatty acids (prepared according to the method of A.A.Spector and-J.C.Hoak, J.Anal.Biochem. 1969, 32, 297-302) were added to the cell culture medium at various concentrations in the range 25 - 100 micromolar final concentration and at various times before and after (from 0 to 12 hours) infection with partially purified clinical isolates of HSV type 2, at a multiplicity of infection of 0.1 plaque forming units/cell.
28 hours after infection the titre of infectious virus in the culture supernatants was determined by standard infectious centre techniques on fresh human embryonic lung fibroblasts.

[2] = system: human embryonic lung fibroblasts; test: cell growth / cytotoxicity in the HSV2 host cell cultures (cell counting); format: cell-based; details: stearic acid 100 micromolar
[3] = stearic acid 100 µM, time relative to infection 12 hours
[4] = stearic acid 100 µM, time relative to infection -1 hours
[5] = stearic acid 100 µM, time relative to infection -2 hours
[6] = stearic acid 100 µM, time relative to infection -3 hours
[7] = stearic acid 100 µM, time relative to infection -4 hours
[8] = stearic acid 100 µM, time relative to infection -8 hours
[9] = stearic acid 100 µM, time relative to infection -12 hours

## CCCCCCCCCCCCCCCCCC(=O)O [stearic acid, octadecanoic acid]
[1]; [3]
  inhibition at 100 µM: 1%
  virus yield: 4.28 x 10^-3 / pfu ml^-1
[1]; [4]
  inhibition at 100 µM: 30%
  virus yield: 3.04 x 10^-3 / pfu ml^-1
[1]; [5]
  inhibition at 100 µM: 36%
  virus yield: 2.77 x 10^-3 / pfu ml^-1
[1]; [6]
  inhibition at 100 µM: 35%
  virus yield: 2.80 x 10^-3 / pfu ml^-1
[1]; [7]
  inhibition at 100 µM: 20%
  virus yield: 3.45 x 10^-3 / pfu ml^-1
[1]; [8]
  inhibition at 100 µM: 0%
  virus yield: 4.33 x 10^-3 / pfu ml^-1
[1]; [9]
  inhibition at 100 µM: 0%
  virus yield: 4.72 x 10^-3 / pfu ml^-1
[1]; stearic acid 25 µM, time relative to infection 1 hours
  virus yield: 4.11 x 10^-3 / pfu ml^-1
[1]; stearic acid 25 µM, time relative to infection 2 hours
  virus yield: 4.31 x 10^-3 / pfu ml^-1
[1]; stearic acid 25 µM, time relative to infection 3 hours
  virus yield: 3.89 x 10^-3 / pfu ml^-1
[1]; stearic acid 25 µM, time relative to infection 4 hours
  virus yield: 4.26 x 10^-3 / pfu ml^-1
[1]; stearic acid 25 µM, time relative to infection 8 hours
  virus yield: 4.41 x 10^-3 / pfu ml^-1
[1]; stearic acid 25 µM, time relative to infection 12 hours
  virus yield: 4.21 x 10^-3 / pfu ml^-1
[1]; stearic acid 25 µM, time relative to infection -1 hours
  virus yield: 4.06 x 10^-3 / pfu ml^-1
[1]; stearic acid 25 µM, time relative to infection -2 hours
  virus yield: 3.72 x 10^-3 / pfu ml^-1
[1]; stearic acid 25 µM, time relative to infection -3 hours
  virus yield: 4.15 x 10^-3 / pfu ml^-1
[1]; stearic acid 25 µM, time relative to infection -4 hours
  virus yield: 4.25 x 10^-3 / pfu ml^-1
[1]; stearic acid 25 µM, time relative to infection -8 hours
  virus yield: 3.88 x 10^-3 / pfu ml^-1
[1]; stearic acid 25 µM, time relative to infection -12 hours
  virus yield: 4.63 x 10^-3 / pfu ml^-1
[1]; stearic acid 50 µM, time relative to infection 0 hours
  virus yield: 4.00 x 10^-3 / pfu ml^-1
[1]; stearic acid 50 µM, time relative to infection 1 hours
  virus yield: 3.96 x 10^-3 / pfu ml^-1
[1]; stearic acid 50 µM, time relative to infection 2 hours
  virus yield: 4.45 x 10^-3 / pfu ml^-1
[1]; stearic acid 50 µM, time relative to infection 3 hours
  virus yield: 3.88 x 10^-3 / pfu ml^-1
[1]; stearic acid 50 µM, time relative to infection 4 hours
  virus yield: 4.36 x 10^-3 / pfu ml^-1
[1]; stearic acid 50 µM, time relative to infection 8 hours
  virus yield: 4.09 x 10^-3 / pfu ml^-1
[1]; stearic acid 50 µM, time relative to infection 12 hours
  virus yield: 3.92 x 10^-3 / pfu ml^-1
[1]; stearic acid 50 µM, time relative to infection -1 hours
  virus yield: 3.14 x 10^-3 / pfu ml^-1
[1]; stearic acid 50 µM, time relative to infection -2 hours
  virus yield: 3.02 x 10^-3 / pfu ml^-1
[1]; stearic acid 50 µM, time relative to infection -3 hours
  virus yield: 3.15 x 10^-3 / pfu ml^-1
[1]; stearic acid 50 µM, time relative to infection -4 hours
  virus yield: 3.98 x 10^-3 / pfu ml^-1
[1]; stearic acid 50 µM, time relative to infection -8 hours
  virus yield: 4.62 x 10^-3 / pfu ml^-1
[1]; stearic acid 50 µM, time relative to infection -12 hours
  virus yield: 4.75 x 10^-3 / pfu ml^-1
[1]; stearic acid 75 µM, time relative to infection 0 hours
  virus yield: 3.55 x 10^-3 / pfu ml^-1
[1]; stearic acid 75 µM, time relative to infection 1 hours
  virus yield: 4.44 x 10^-3 / pfu ml^-1
[1]; stearic acid 75 µM, time relative to infection 2 hours
  virus yield: 3.92 x 10^-3 / pfu ml^-1
[1]; stearic acid 75 µM, time relative to infection 3 hours
  virus yield: 4.53 x 10^-3 / pfu ml^-1
[1]; stearic acid 75 µM, time relative to infection 4 hours
  virus yield: 4.21 x 10^-3 / pfu ml^-1
[1]; stearic acid 75 µM, time relative to infection 8 hours
  virus yield: 3.87 x 10^-3 / pfu ml^-1
[1]; stearic acid 75 µM, time relative to infection 12 hours
  virus yield: 4.11 x 10^-3 / pfu ml^-1
[1]; stearic acid 75 µM, time relative to infection -1 hours
  virus yield: 2.54 x 10^-3 / pfu ml^-1
[1]; stearic acid 75 µM, time relative to infection -2 hours
  virus yield: 2.69 x 10^-3 / pfu ml^-1
[1]; stearic acid 75 µM, time relative to infection -3 hours
  virus yield: 2.31 x 10^-3 / pfu ml^-1
[1]; stearic acid 75 µM, time relative to infection -4 hours
  virus yield: 2.25 x 10^-3 / pfu ml^-1
[1]; stearic acid 75 µM, time relative to infection -8 hours
  virus yield: 4.18 x 10^-3 / pfu ml^-1
[1]; stearic acid 75 µM, time relative to infection -12 hours
  virus yield: 3.96 x 10^-3 / pfu ml^-1
[1]; stearic acid 100 µM, time relative to infection 0 hours
  virus yield: 3.85 x 10^-3 / pfu ml^-1
[1]; stearic acid 100 µM, time relative to infection 1 hours
  virus yield: 3.71 x 10^-3 / pfu ml^-1
[1]; stearic acid 100 µM, time relative to infection 2 hours
  virus yield: 3.96 x 10^-3 / pfu ml^-1
[1]; stearic acid 100 µM, time relative to infection 3 hours
  virus yield: 3.83 x 10^-3 / pfu ml^-1
[1]; stearic acid 100 µM, time relative to infection 4 hours
  virus yield: 4.52 x 10^-3 / pfu ml^-1
[1]; stearic acid 100 µM, time relative to infection 8 hours
  virus yield: 4.03 x 10^-3 / pfu ml^-1
[2]
  inhibition of cell division / cell growth: inhibits cell division; also recorded: (+) = some inhibition of cell growth at this concentration of fatty acid supplementation
